Experimental data: PubChem BioAssay AID248 (DTP/NCI, 2004)
“And” between values parts separate entries of the source, which are not always exact repeats. Equal values may be shown once. Toxic doses and inconclusive results are not listed. No stated cut-off is given here; in the data, active means T/C of 150% or more; inactive means T/C below 125%.

Tested on: L1210 leukemia ip in BDF1 mice, survival T/C
Experiment: NCI In Vivo Anticancer Drug Screen. Data for tumor model L1210 Leukemia (intraperitoneal) in B6D2F1 (BDF1) mice
Conditions: endpoint: mean survival time, vehicle: water, higher = longer survival
Outline: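 Tumor was transplanted into mice, which were then dosed with test compound or vehicle alone. Survival was recorded for each group, and the treated figure was expressed relative to the control figure.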

Measured: T/C

O=C(NO)c1ccncc1
inactive: dose: 6.25 mg/kg/injection, schedule: Q03HX008 (ip) 96 % of control | dose: 12.5 mg/kg/injection, schedule: Q03HX008 (ip) 100 % of control | dose: 18.75 mg/kg/injection, schedule: Q03HX008 (ip) 95 % of control | dose: 25.0 mg/kg/injection, schedule: Q01DX005 (iv) 100 % of control | dose: 33.0 mg/kg/injection, schedule: Q#B X027 (sc) 98 % of control | dose: 50.0 mg/kg/injection, schedule: Q01DX005 (iv) 100 % of control and 105 % of control | dose: 50.0 mg/kg/injection, schedule: Q01DX009 (sc) 98 % of control | dose: 67.0 mg/kg/injection, schedule: Q#B X027 (ip) 98 % of control | dose: 100.0 mg/kg/injection, schedule: Q01DX005 (iv) 101 % of control and 102 % of control and 105 % of control | dose: 100.0 mg/kg/injection, schedule: Q01DX009 (ip) 94 % of control and 100 % of control | dose: 100.0 mg/kg/injection, schedule: Q01DX009 (sc) 93 % of control and 100 % of control | dose: 100.0 mg/kg/injection, schedule: Q01DX010 (ip) 106 % of control | dose: 125.0 mg/kg/injection, schedule: Q01DX001 (ip) 97 % of control | dose: 133.0 mg/kg/injection, schedule: Q#B X027 (ip) 103 % of control | dose: 134.0 mg/kg/injection, schedule: Q#B X027 (sc) 107 % of control | dose: 200.0 mg/kg/injection, schedule: Q01DX001 (ip) 107 % of control | dose: 200.0 mg/kg/injection, schedule: Q01DX005 (ip) 101 % of control | dose: 200.0 mg/kg/injection, schedule: Q01DX005 (iv) 100 % of control and 101 % of control | dose: 200.0 mg/kg/injection, schedule: Q01DX009 (sc) 96 % of control | dose: 200.0 mg/kg/injection, schedule: Q01DX010 (ip) 107 % of control | dose: 200.0 mg/kg/injection, schedule: Q01DX Z (ip) 117 % of control | dose: 200.0 mg/kg/injection, schedule: Q02DX Z (ip) 114 % of control | dose: 200.0 mg/kg/injection, schedule: Q04DX003 (ip) 103 % of control | dose: 200.0 mg/kg/injection, schedule: Q08DX002 (ip) 103 % of control | dose: 200.0 mg/kg/injection, schedule: Q#A X030 (ip) 98 % of control | dose: 200.0 mg/kg/injection, schedule: Q#B X027 (ip) 122 % of control | dose: 200.0 mg/kg/injection, schedule: Q#B X027 (sc) 98 % of control | dose: 220.0 mg/kg/injection, schedule: Q01DX Z (ip) 111 % of control | dose: 222.0 mg/kg/injection, schedule: Q01DX015 (ip) 104 % of control | dose: 222.0 mg/kg/injection, schedule: Q01DX Z (ip) 105 % of control and 106 % of control and 119 % of control | dose: 225.0 mg/kg/injection, schedule: Q01DX Z (ip) 109 % of control | dose: 250.0 mg/kg/injection, schedule: Q01DX001 (ip) 94 % of control and 108 % of control | dose: 250.0 mg/kg/injection, schedule: Q01DX005 (iv) 97 % of control | dose: 250.0 mg/kg/injection, schedule: Q01DX009 (oral) 96 % of control and 98 % of control | dose: 250.0 mg/kg/injection, schedule: Q01DX009 (sc) 93 % of control | dose: 250.0 mg/kg/injection, schedule: Q01DX015 (iv) 106 % of control | dose: 250.0 mg/kg/injection, schedule: Q03HX024 (ip) 100 % of control | dose: 267.0 mg/kg/injection, schedule: Q#B X027 (sc) 97 % of control | dose: 270.0 mg/kg/injection, schedule: Q01DX015 (ip) 121 % of control | dose: 300.0 mg/kg/injection, schedule: Q01DX015 (im) 93 % of control | dose: 300.0 mg/kg/injection, schedule: Q01DX Z (ip) 112 % of control | dose: 300.0 mg/kg/injection, schedule: Q02DX Z (ip) 112 % of control | dose: 300.0 mg/kg/injection, schedule: Q#A X030 (ip) 98 % of control | dose: 333.0 mg/kg/injection, schedule: Q01DX015 (ip) 119 % of control | dose: 333.0 mg/kg/injection, schedule: Q01DX Z (ip) 120 % of control | dose: 335.0 mg/kg/injection, schedule: Q01DX Z (ip) 97 % of control and 116 % of control | dose: 400.0 mg/kg/injection, schedule: Q01DX001 (ip) 100 % of control | dose: 400.0 mg/kg/injection, schedule: Q01DX005 (iv) 103 % of control | dose: 400.0 mg/kg/injection, schedule: Q01DX009 (sc) 100 % of control | dose: 400.0 mg/kg/injection, schedule: Q01DX015 (ip) 111 % of control | dose: 400.0 mg/kg/injection, schedule: Q01DX015 (sc) 104 % of control | dose: 400.0 mg/kg/injection, schedule: Q04DX003 (ip) 114 % of control | dose: 400.0 mg/kg/injection, schedule: Q08DX002 (ip) 105 % of control | dose: 500.0 mg/kg/injection, schedule: Q01DX001 (ip) 111 % of control and 113 % of control | dose: 500.0 mg/kg/injection, schedule: Q01DX005 (iv) 100 % of control | dose: 500.0 mg/kg/injection, schedule: Q01DX009 (oral) 93 % of control and 105 % of control | dose: 500.0 mg/kg/injection, schedule: Q01DX009 (sc) 94 % of control and 100 % of control | dose: 500.0 mg/kg/injection, schedule: Q01DX015 (im) 104 % of control | dose: 500.0 mg/kg/injection, schedule: Q01DX015 (ip) 121 % of control | dose: 500.0 mg/kg/injection, schedule: Q01DX015 (oral) 97 % of control | dose: 500.0 mg/kg/injection, schedule: Q03HX024 (ip) 98 % of control | dose: 600.0 mg/kg/injection, schedule: Q01DX001 (ip) 105 % of control | dose: 600.0 mg/kg/injection, schedule: Q01DX005 (ip) 101 % of control | dose: 600.0 mg/kg/injection, schedule: Q01DX005 (iv) 103 % of control | dose: 600.0 mg/kg/injection, schedule: Q01DX015 (sc) 98 % of control | dose: 600.0 mg/kg/injection, schedule: Q02DX Z (ip) 123 % of control | dose: 600.0 mg/kg/injection, schedule: Q03DX005 (ip) 108 % of control | dose: 600.0 mg/kg/injection, schedule: Q04DX003 (ip) 120 % of control | dose: 600.0 mg/kg/injection, schedule: Q08DX002 (ip) 105 % of control | dose: 750.0 mg/kg/injection, schedule: Q01DX009 (oral) 100 % of control | dose: 750.0 mg/kg/injection, schedule: Q01DX009 (sc) 111 % of control | dose: 750.0 mg/kg/injection, schedule: Q01DX015 (im) 113 % of control | dose: 750.0 mg/kg/injection, schedule: Q01DX015 (ip) 113 % of control | dose: 750.0 mg/kg/injection, schedule: Q03HX024 (ip) 96 % of control | dose: 800.0 mg/kg/injection, schedule: Q01DX005 (ip) 107 % of control | dose: 800.0 mg/kg/injection, schedule: Q01DX Z (ip) 114 % of control | dose: 800.0 mg/kg/injection, schedule: Q03DX005 (ip) 107 % of control | dose: 800.0 mg/kg/injection, schedule: Q08DX002 (ip) 111 % of control | dose: 900.0 mg/kg/injection, schedule: Q01DX001 (ip) 105 % of control | dose: 1000.0 mg/kg/injection, schedule: Q01DX001 (ip) 106 % of control | dose: 1000.0 mg/kg/injection, schedule: Q01DX009 (oral) 102 % of control and 105 % of control | dose: 1000.0 mg/kg/injection, schedule: Q01DX015 (oral) 109 % of control | dose: 1000.0 mg/kg/injection, schedule: Q03HX024 (ip) 95 % of control | dose: 1100.0 mg/kg/injection, schedule: Q03DX005 (ip) 108 % of control | dose: 1500.0 mg/kg/injection, schedule: Q03HX024 (ip) 113 % of control
